Results published in US20080300298A1, “Honokiol Derivates For the Treatment of Proliferative Disorders” (priority 2005, published 2008).

Key:
[1] = test system: MDA-MB-231 cells; test: MDA-MB-231 tumors in nude mice; format: in vivo
Method: FIG. 36 is a graph of tumor volume over weeks of tumors in mice. MDA-MB-231 cells were injected into both flanks of athymic nude mice. The mice were treated with daily I.P. injections of either a vehicle (n=5) or HNK (2 mg/d, n=5) for four weeks.
Animal studies: All animals were maintained and animal experiments were performed under NIH and institutional guidelines established for the Animal Core Facility at the Cedars-Sinai Medical Center. MDA-MB-231 cells were harvested, washed twice with sterile PBS, counted and re-suspended in Matrigel (BD Biosciences, San Jose, Calif.). Six-week-old female athymic nude mice were injected subcutaneously in both flanks with cells at a density of 1×10^6 viable cells/100 μl. […] Tumor size was measured with a linear caliper for up to 5 weeks, and the volume was estimated by using the equation V=(a×b2)×0.5236, where “a” is the larger dimension and “b” the perpendicular diameter.
In vivo activity of HNK against human breast cancer. MDA-MB-231 cells were injected on both flanks of nude mice (1×10^6 cells per injection, five mice per group, two tumors in each mouse), and tumor growth was monitored weekly. […] The mice were treated with daily injections of either 2 mg HNK (100 mg/kg) or a control vehicle for four weeks; and the tumors were measured weekly.

[2] = test system: RAW 264.7 cells; test: Osteoclast differentiation assay (RANKL); format: cell-based, mouse; conditions: RAW 264.7, 5 mM (printed) honokiol 12 h, 5 nM RANKL
Method: (A) RAW 264.7 cells (1×10^4) were plated overnight, pretreated with 5 mM honokiol for 12 h, and then treated with 5 nM RANKL. At 4 and 5 days later, cells were stained for TRAP and evaluated for osteoclastogenesis. Photographs were taken after 5 days of incubation with RANKL. (B) The numbers of TRAP-positive multinucleated osteoclasts (>3 nuclei) per well were counted. (C) H1299 cells (2.5×10^4) were seeded into the upper wells of a Matrigel invasion chamber overnight in the absence of serum, pretreated with […] honokiol for 12 h, treated with 1 nM TNF for 24 h in the presence of 1% serum, and then subjected to invasion assay. The value for no honokiol and no TNF was set to 1.0.
Osteoclast differentiation assay. […] At days 4 and 5, the cells were stained for tartrate-resistant acid phosphatase (TRAP) expression, as previously described (18) using an acid phosphatase kit (Sigma-Aldrich), and the TRAP-positive multinucleated osteoclasts (>3 nuclei) per well were counted.
Honokiol suppresses RANKL-induced osteoclastogenesis. Because RANKL, a member of the TNF superfamily, induces osteoclastogenesis through the activation of NF-kB (Abu-Amer, Y., et al. 1997 Nat. Med. 3:1189-1190), whether honokiol can suppress RANKL-induced osteoclastogenesis was assessed. […]

[3] = test system: JNK in CH12.LX cells; test: JNK phosphorylation (Western blotting); format: cell-based, mouse; conditions: CH12.LX cells transfected with hCD40-LMP1
Text: The cells were pelleted by centrifugation, lysed and analyzed by SDS PAGE and Western blotting. Peroxidase-labeled antibodies were visualized on Western blots using a chemilluminescent detection reagent to assay for JNK phosphorylation.

SMILES: C=CCc1ccc(O)c(-c2ccc(O)c(CC=C)c2)c1 [HNK, Honokiol]
- tumor growth ([1]; 2 mg HNK (100 mg/kg) daily i.p., four weeks, p<0.02 from week 2): complete arrest of tumor growth
- tolerability in the animals ([1]; therapeutically beneficial doses): well tolerated by the animals
- RANKL-induced osteoclast differentiation (TRAP) [2]: suppressed it
- JNK phosphorylation [3]: inhibited by honokiol in a dose dependent manner
